Assay results: patent publication US20260217767A1, “NOVEL A4B7 THIOETHER PEPTIDE DIMER ANTAGONISTS” (Protagonist Therapeutics, Inc., priority 2014, published 2026)
Where a SMILES comes first, the peptide text is derived from it.

What was measured:
[1] = Simulated Intestinal Fluid (SIF) Stability Assay; assay type: in vitro ADME; settings: pig, 37° C., monomers, Table 6; for half-life: porcine pancreatin
Method in brief: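 Percent peptide remaining over time was measured by LC-MS/MS as the peak-area ratio to internal standard, and a first-order decay fit gave half-life. Digests contained 22 μM peptide and 1% pancreatin in pH 6.5 FaSSIF buffer at 37° C. Aliquots were quenched in organic solvent with formic acid.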

rh integrin α4β7 = molecular target: T1, rh integrin α4β7 (Homo sapiens, UniProt P13612+P26010); assay: α4β7-MAdCAM Competition ELISA; assay type: binding; settings: thioether monomer peptides, Table 6; read-out: ELISA A4B7
T1 construct: purchased R&D Systems 5397-A30
T1 sequence (P13612 34-977 limits assumed): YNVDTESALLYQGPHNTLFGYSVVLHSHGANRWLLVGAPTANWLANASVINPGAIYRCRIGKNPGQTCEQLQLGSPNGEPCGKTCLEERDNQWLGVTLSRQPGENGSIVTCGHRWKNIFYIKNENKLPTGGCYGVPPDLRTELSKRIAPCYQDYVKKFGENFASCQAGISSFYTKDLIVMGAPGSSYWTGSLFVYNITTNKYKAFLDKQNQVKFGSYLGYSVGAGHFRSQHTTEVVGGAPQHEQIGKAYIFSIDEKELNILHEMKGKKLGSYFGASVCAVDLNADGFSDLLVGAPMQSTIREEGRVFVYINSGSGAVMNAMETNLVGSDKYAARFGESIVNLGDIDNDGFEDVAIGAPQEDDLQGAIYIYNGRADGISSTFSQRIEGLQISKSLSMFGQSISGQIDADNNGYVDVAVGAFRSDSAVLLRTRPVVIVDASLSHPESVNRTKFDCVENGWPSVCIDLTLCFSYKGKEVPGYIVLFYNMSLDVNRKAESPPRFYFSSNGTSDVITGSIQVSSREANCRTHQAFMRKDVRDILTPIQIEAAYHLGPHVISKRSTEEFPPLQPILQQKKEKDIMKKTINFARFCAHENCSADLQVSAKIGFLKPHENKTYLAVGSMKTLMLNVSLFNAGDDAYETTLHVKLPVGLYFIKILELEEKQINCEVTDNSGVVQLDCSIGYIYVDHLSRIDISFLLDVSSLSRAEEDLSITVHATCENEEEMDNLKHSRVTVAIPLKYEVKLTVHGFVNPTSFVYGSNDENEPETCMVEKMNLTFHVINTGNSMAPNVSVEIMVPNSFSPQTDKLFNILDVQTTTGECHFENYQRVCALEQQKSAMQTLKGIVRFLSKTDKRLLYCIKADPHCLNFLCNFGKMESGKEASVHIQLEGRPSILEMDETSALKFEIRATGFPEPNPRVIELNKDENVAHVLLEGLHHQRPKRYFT
T1 sequence (P26010 20-723 limits assumed): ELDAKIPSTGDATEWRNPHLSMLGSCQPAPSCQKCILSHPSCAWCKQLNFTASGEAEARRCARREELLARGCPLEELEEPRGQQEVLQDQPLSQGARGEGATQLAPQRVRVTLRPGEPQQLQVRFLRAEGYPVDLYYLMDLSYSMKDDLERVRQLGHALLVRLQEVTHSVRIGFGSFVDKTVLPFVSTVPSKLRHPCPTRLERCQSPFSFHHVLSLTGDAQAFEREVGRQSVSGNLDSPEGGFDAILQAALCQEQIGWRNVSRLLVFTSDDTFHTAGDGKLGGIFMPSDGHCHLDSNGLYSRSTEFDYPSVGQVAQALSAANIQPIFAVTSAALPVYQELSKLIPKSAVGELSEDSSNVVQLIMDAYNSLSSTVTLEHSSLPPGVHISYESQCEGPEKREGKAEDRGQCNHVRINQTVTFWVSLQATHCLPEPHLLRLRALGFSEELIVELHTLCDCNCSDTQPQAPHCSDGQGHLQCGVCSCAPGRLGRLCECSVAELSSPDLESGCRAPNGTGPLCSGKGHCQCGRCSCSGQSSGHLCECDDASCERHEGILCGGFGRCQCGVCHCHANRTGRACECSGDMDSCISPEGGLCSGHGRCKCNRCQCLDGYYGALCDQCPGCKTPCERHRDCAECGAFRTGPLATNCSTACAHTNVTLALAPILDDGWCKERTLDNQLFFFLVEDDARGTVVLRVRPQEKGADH
Method in brief: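 Recombinant human α4β7 captured on nickel-coated plates, then incubated 1 h at room temperature with serially diluted peptides (final top 10 μM) and 10 nM final MAdCAM-1 in Tris pH 7.6 buffer with 1 mM MnCl2 or MgCl2. Bound MAdCAM-1 detected with anti-human IgG1-HRP and TMB, absorbance at 450 nm.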

Compound	half-life [1] [h]	IC50 (rh integrin α4β7) [nM]	half-life at 22 μM ([1]; simulated intestinal fluid (SIF) with 1% porcine pancreatin, pH 6.5, porcine pancreatin) [h]
CC(C)C[C@@H]1NC(=O)[C@H]([C@@H](C)O)NC(=O)[C@H](CC(=O)O)NC(=O)[C@H](CO)NC(=O)[C@H](CCCNC(=N)N)N(C)C(=O)c2ccccc2CSC(C)(C)[C@@H](C(=O)N[C@@H](Cc2cccc3ccccc23)C(=O)N[C@@H](CCC(=O)O)C(=O)N[C@H](CCCCN)C(N)=O)NC1=O [compound 77] (HELM PEPTIDE1{[meR].S.D.T.L.[Pen].[O=C([C@H](Cc1cccc2ccccc12)N[*:1])[*:2]].E.[dK].[am]}|CHEM1{[O=C(c1ccccc1C[*:2])[*:1]]}$PEPTIDE1,CHEM1,1:R1-1:R1|PEPTIDE1,CHEM1,6:R3-1:R2$$$V2.0)	1.47	< 25	–
CC(C)C[C@@H]1NC(=O)[C@H]([C@@H](C)O)NC(=O)[C@H](CC(=O)O)NC(=O)[C@H](CO)NC(=O)[C@H](CCCNC(=N)N)N(C)C(=O)c2ccccc2CSC(C)(C)[C@@H](C(=O)N[C@@H](Cc2ccc(C(F)(F)F)cc2)C(=O)N[C@@H](CCC(=O)O)C(=O)N[C@H](CCCCN)C(N)=O)NC1=O [compound 76] (HELM PEPTIDE1{[meR].S.D.T.L.[Pen].[O=C([C@H](Cc1ccc(C(F)(F)F)cc1)N[*:1])[*:2]].E.[dK].[am]}|CHEM1{[O=C(c1ccccc1C[*:2])[*:1]]}$PEPTIDE1,CHEM1,1:R1-1:R1|PEPTIDE1,CHEM1,6:R3-1:R2$$$V2.0)	> 3	< 25	–
CC(C)C[C@@H]1NC(=O)[C@H]([C@@H](C)O)NC(=O)[C@H](CC(=O)O)NC(=O)[C@H](CO)NC(=O)[C@H](CCCNC(=N)N)N(C)C(=O)c2ccccc2CSC(C)(C)[C@@H](C(=O)N[C@@H](Cc2c[nH]c3ccccc23)C(=O)N[C@@H](CCC(=O)O)C(=O)N(C)[C@H](CCCCN)C(N)=O)NC1=O [compound 62] (HELM PEPTIDE1{[meR].S.D.T.L.[Pen].W.E.[CN([C@H](CCCCN)C(=O)[*:2])[*:1]].[am]}|CHEM1{[O=C(c1ccccc1C[*:2])[*:1]]}$PEPTIDE1,CHEM1,1:R1-1:R1|PEPTIDE1,CHEM1,6:R3-1:R2$$$V2.0)	–	< 25	> 3
